Columns and labels:
[1] = heat stability to withstand spray drying; format: physicochemical; settings: temperature range of from about 40° C. to about 100° C.
COX-2 = molecular target: T1, COX-2 (Homo sapiens, UniProt P35354); test: in vitro activity of COX-2; format: biochemical
T1 sequence (P35354 18-604): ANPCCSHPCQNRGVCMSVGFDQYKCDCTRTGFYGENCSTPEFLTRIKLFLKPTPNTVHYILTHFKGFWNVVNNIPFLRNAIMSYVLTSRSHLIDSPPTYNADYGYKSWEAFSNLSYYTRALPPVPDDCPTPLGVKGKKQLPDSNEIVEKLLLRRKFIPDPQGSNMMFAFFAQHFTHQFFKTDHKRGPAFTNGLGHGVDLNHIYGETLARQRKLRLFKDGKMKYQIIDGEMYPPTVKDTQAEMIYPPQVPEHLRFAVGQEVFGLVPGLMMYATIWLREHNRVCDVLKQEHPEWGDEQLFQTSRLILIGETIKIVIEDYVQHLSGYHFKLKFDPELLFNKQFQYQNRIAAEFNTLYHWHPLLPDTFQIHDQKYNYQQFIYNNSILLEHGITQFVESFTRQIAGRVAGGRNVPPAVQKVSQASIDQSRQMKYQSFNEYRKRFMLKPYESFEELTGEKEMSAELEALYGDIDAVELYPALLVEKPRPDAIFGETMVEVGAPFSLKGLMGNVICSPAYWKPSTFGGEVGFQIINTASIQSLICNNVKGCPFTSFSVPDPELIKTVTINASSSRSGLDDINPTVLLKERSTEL

[2] = Comparative dissolution of crystalline Form B and amorphous compound; format: physicochemical; settings: 150 mg in 900 mL, 37° C., paddle speed 100 rpm, particle size 212-425 μm, HPLC
Procedure: Dissolution rates for the crystalline compound having Form B and the amorphous compound were determined and compared in two media: water and simulated intestinal fluid (SIF) minus pancreatin.
Initial materials were sieved and material with a particle size between 212 and 425 μm was used for the study. A 150 mg sample was added to 900 mL of fluid in a dissolution bath. A temperature of 37° C. and a paddle speed of 100 rpm were used for the dissolution. Samples were pulled at specific time points (5, 15, 30 120, and 240 min) and filtered through a 0.2 μm nylon filter. Samples were analyzed by HPLC.

Structure (SMILES) | heat stability [1] | inhibits in vitro activity of COX-2 (COX-2) | dissolution rate in simulated intestinal fluid (SIF) minus pancreatin [2] | dissolution rate in water [2]
Cc1nc(C2CCCCC2)c(-c2ccc(S(N)(=O)=O)c(F)c2)o1 [5-(4-aminosulfonyl-3-fluorophenyl)-4-cyclohexyl-2-methyloxazole] | sufficient heat stability | – | – | –
Cc1nc(C2CCCCC2)c(-c2ccc(S(N)(=O)=O)c(F)c2)o1 [amorphous compound, 5-(4-aminosulfonyl-3-fluorophenyl)-4-cyclohexyl-2-methyloxazole] | – | nanomolar range | dissolved more rapidly | dissolved more rapidly
Cc1nc(C2CCCCC2)c(-c2ccc(S(N)(=O)=O)c(F)c2)o1 [crystalline compound having Form B, 5-(4-aminosulfonyl-3-fluorophenyl)-4-cyclohexyl-2-methyloxazole] | – | – | significantly slower dissolution rate than the amorphous form | significantly slower dissolution rate than the amorphous form

Source: patent US20020032226A1, “Novel form of an oxazole compound” (priority 2000, published 2002)
